Experimental data: patent US5284856A, “Oncogene-encoded kinases inhibition using 4-H-1-benzopyran-4-one derivatives” (Hoechst Aktiengesellschaft, priority 1988, dated 1994)
Counter-ions that a name gives are not always drawn.

The compounds below were run on T1, cAMP-dependent protein kinase (assay: 3',5'-cAMP-dependent protein kinase inhibition (catalytic sub-unit, kemptide substrate)). Conditions: 45 μg/ml inhibitor, 40 μM ATP, 15 minutes at 30° C., pH 6.9; hydrochloride.
T1 construct: purchased Sigma Chemical Co., St. Louis, Mo., USA
Assay type: biochemical
Protocol: Assay for 3', 5'-cAMP-Dependent Protein Kinase Inhibition
The catalytic sub-unit of cAMP-dependent protein kinase (Sigma) was reconstituted as described by Sigma (Sigma Chemical Co., St. Louis, Mo., USA). The enzyme activity was measured with kemptide (Sigma) (Leu-Arg-Arg-Ala-Ser-Leu-Gly) as the substrate. The inhibitor was preincubated with the enzyme, substrate (190 μM), Mg^2+ (5 mM), 0.25 mg/ml of BSA and 3.75 mM of mercaptoethanol in 50 mM of MOPA (4-morpholinopropanesulfonic acid), pH 6.9. The reaction was initiated by adding γ-^32 P ATP (40 μM). After 15 minutes at 30° C., an aliquot amount was transferred to p81 ion exchange paper (2×2 cm; Whatman Paper Ltd., Great Britain), the paper was immersed in 75 mM H3 PO4, washed and dried, and the incorporation of ^32 P was determined by means of a liquid scintillation counter.

Compound | % inhibition of cAMP-dependent protein kinase at an inhibitor concentration of 45 μg/ml
CN1CC[C@H](c2c(O)cc(O)c3c(=O)cc(-c4ccccc4)oc23)[C@H](O)C1 (single isomer, unassigned) [phenyl HCl (+), (+)-cis-5,7-dihydroxy-2-phenyl-8-[4-(3-hydroxy-1-methyl)piperidinyl]-4H-1-benzopyran-4-one hydrochloride] | 13%
CN1CC[C@H](c2c(O)cc(O)c3c(=O)cc(-c4ccccc4)oc23)[C@H](O)C1 (single isomer, unassigned) [phenyl HCl (-), (-)-cis-5,7-dihydroxy-2-phenyl-8-[4-(3-hydroxy-1-methyl)piperidinyl]-4H-1-benzopyran-4-one hydrochloride] | 46%

Same assay, conditions: pH 6.9, 45 μg/ml inhibitor, 40 μM ATP, 15 minutes at 30° C., read-out: % inhibition of cAMP-dependent protein kinase at an inhibitor concentration of 45 μg/ml

Compound | inhibition at 45 µg/mL
CN1CCC(c2c(O)cc(O)c3c(=O)cc(-c4ccccc4Br)oc23)C(O)C1 (racemic) [2-bromophenyl (±)] | 63%
CN1CCC(c2c(O)cc(O)c3c(=O)cc(-c4ccccc4F)oc23)C(O)C1 (racemic) [2-fluorophenyl HCl (±)] | 0%
CN1CCC(c2c(O)cc(O)c3c(=O)cc(-c4ccc(-c5ccccc5)cc4)oc23)C(O)C1 (racemic) [4-biphenyl HCl (±)] | 37%
CN1CCC(c2c(O)cc(O)c3c(=O)cc(-c4ccc(Br)cc4)oc23)C(O)C1 (racemic) [4-bromophenyl HCl (±)] | 65%
CN1CCC(c2c(O)cc(O)c3c(=O)cc(-c4ccc(Cl)cc4)oc23)C(O)C1 (racemic) [4-chlorophenyl HCl (±)] | 37%
CN1CCC(c2c(O)cc(O)c3c(=O)cc(-c4ccc(F)cc4)oc23)C(O)C1 (racemic) [4-fluorophenyl HCl (±)] | 25%
CN1CCC(c2c(O)cc(O)c3c(=O)cc(Cc4ccccc4Cl)oc23)C(O)C1 (racemic) [(2-chlorophenyl)methyl HCl (±)] | 69%
CCc1cc(=O)c2c(O)cc(O)c(C3CCN(C)CC3O)c2o1 (racemic) [ethyl HCl (±)] | 0%
CCCc1cc(=O)c2c(O)cc(O)c(C3CCN(C)CC3O)c2o1 (racemic) [n-propyl HCl (±)] | 0%
CN1CC[C@H](c2c(O)cc(O)c3c(=O)cc(-c4ccccc4Cl)oc23)[C@H](O)C1 (relative stereo) [2-chlorophenyl HCl (±), (±)-cis-5,7-dihydroxy-2-(2-chlorophenyl)-8-[4-(3-hydroxy-1-methyl)piperidinyl]-4H-1-benzopyran-4-one hydrochloride] | 29%
CN1CC[C@H](c2c(O)cc(O)c3c(=O)cc(-c4ccc5ccccc5c4)oc23)[C@H](O)C1 (relative stereo) [2-naphthyl HCl (±), (±)-cis-5,7-dihydroxy-2-(2-naphthyl)-8-[4-(3-hydroxy-1-methyl)piperidinyl]-4H-1-benzopyran-4-one hydrochloride] | 0%
CN1CC[C@H](c2c(O)cc(O)c3c(=O)cc(-c4ccccn4)oc23)[C@H](O)C1 (relative stereo) [2-pyridyl HCl (±), (±)-cis-5,7-dihydroxy-2-(2-pyridyl)-8-[4-(3-hydroxy-1-methyl)piperidinyl]-4H-1-benzopyran-4-one hydrochloride] | 0%
CN1CC[C@H](c2c(O)cc(O)c3c(=O)cc(-c4cccs4)oc23)[C@H](O)C1 (relative stereo) [2-thiophenyl (±), (±)-cis-5,7-dihydroxy-2-(2-thienyl)-8-[4-(3-hydroxy-1-methyl)piperidinyl]-4H-1-benzopyran-4-one] | 14%
CN1CC[C@H](c2c(O)cc(O)c3c(=O)cc(-c4cccnc4)oc23)[C@H](O)C1 (relative stereo) [3-pyridyl HCl (±), (±)-cis-5,7-dihydroxy-2-(3-pyridyl)-8-[4-(3-hydroxy-1-methyl)piperidinyl]-4H-1-benzopyran-4-one hydrochloride] | 0%
Cc1ccc(-c2cc(=O)c3c(O)cc(O)c([C@H]4CCN(C)C[C@H]4O)c3o2)cc1 (relative stereo) [4-methylphenyl HCl (±), (±)-cis-5,7-dihydroxy-2-(4-methylphenyl)-8-[4-(3-hydroxy-1-methyl)piperidinyl]-4H-1-benzopyran-4-one hydrochloride] | 55%
CN1CC[C@H](c2c(O)cc(O)c3c(=O)cc(-c4ccncc4)oc23)[C@H](O)C1 (relative stereo) [4-pyridyl HCl (±), (±)-cis-5,7-dihydroxy-2-(4-pyridyl)-8-[4-(3-hydroxy-1-methyl)piperidinyl]-4H-1-benzopyran-4-one hydrochloride] | 12%
CN1CC[C@H](c2c(O)cc(O)c3c(=O)cc(-c4ccccc4)oc23)[C@H](O)C1 (relative stereo) [phenyl HCl (±), (±)-cis-5,7-dihydroxy-2-phenyl-8-[4-(3-hydroxy-1-methyl)piperidinyl]-4H-1-benzopyran-4-one hydrochloride] | 48%
CN1CC[C@H](c2c(O)cc(O)c3c(=O)cc(-c4ccccc4Cl)oc23)[C@H](O)C1 (single isomer, unassigned) [2-chlorophenyl HCl (+), (+)-cis-5,7-dihydroxy-2-(2-chlorophenyl)-8-[4-(3-hydroxy-1-methyl)piperidinyl]-4H-1-benzopyran-4-one hydrochloride] | 27%
CN1CC[C@H](c2c(O)cc(O)c3c(=O)cc(-c4ccccn4)oc23)[C@H](O)C1 (single isomer, unassigned) [2-pyridyl HCl (-), (-)-cis-5,7-dihydroxy-2-(2-pyridyl)-8-[4-(3-hydroxy-1-methyl)piperidinyl]-4H-1-benzopyran-4-one hydrochloride] | 6%
CCCc1cc(=O)c2c(O)cc(O)c(C3CCN(C)CC3O)c2o1 (single isomer, unassigned) [n-propyl HCl (-)] | 5%

The compounds below were run on A 549 (assay: SRC Tumor Test (implantation under renal capsule of nude mouse), bronchogenic carcinoma A 549). Conditions: A 549, 35 mg/kg/day i.v., days 2-15.
Assay type: in vivo
Protocol: (§1) Single cell suspensions (from cell culture A 549 or disaggregated human tumor xenografts LXF 529) in Beriplast (Behringwerke AG) were diluted 1:2 with RPMI 1640 supplemented with 15% FCS to a final cell concentration of 10^7 cells/50 μl. This suspension was sucked quickly into 50 μglass capillaries (diameter 1.5 mm), of which the inner walls had been moistered with a thrombin/CaCl2 solution (500 units thrombin in 1 ml 40 mmol CaCl2).
(§2) After solidification of the cell-fibrin mixture (about 5 min at RT) the fibrin clot has been removed from the glass capillary into a petridish by air pressure. The fibrin clot was cut into 2 mm pieces (≈5×10^5 cells per piece) and the pieces were stored in RPMI 1640 supplemented with 15% FCS until implantation.
(§3) A single fibrin piece was transferred under the renal capsule of a nude mouse and, subsequently, two perpendicular diameters of the implanted piece were measured by microscope with an ocular micrometer (day 0). The tumor size was calculated according to
b=diameter perpendicular to a […]
(§4) On day 21 after implantation the animals were sacrificed, the kidney was exteriorized and the tumor size was measured again. The effectivity of the test drug was calculated from the tumor growth inhibition.
The relative tumor size VR was calculated according the formula [formula] […]

Compound | T/C
CN1CC[C@H](c2c(O)cc(O)c3c(=O)cc(-c4cccc(Br)c4)oc23)[C@H](O)C1 (relative stereo) [Exmp. 17, (±)-cis-5,7-Dihydroxy-2-(3-bromophenyl)-8-[4-(3-hydroxy-1-methyl)piperidinyl]-4H-1-benzopyran-4-one hydrochloride] | 70%

Same assay, conditions: A 549, 100 mg/kg/day p.o., days 2-15

Compound | T/C
CN1CC[C@H](c2c(O)cc(O)c3c(=O)cc(-c4cccc(Br)c4)oc23)[C@H](O)C1 (relative stereo) [Exmp. 17, (±)-cis-5,7-Dihydroxy-2-(3-bromophenyl)-8-[4-(3-hydroxy-1-methyl)piperidinyl]-4H-1-benzopyran-4-one hydrochloride] | 73%

The compounds below were run on LXF 529 (assay: SRC Tumor Test (implantation under renal capsule of nude mouse), bronchogenic carcinoma LXF 529). Conditions: LXF 529, 2 mg/kg/day i.v., days 2-15.
Assay type: in vivo, human tumor xenograft in nude mouse
Protocol: as §1, §2, §3
b=diameter perpendicular to a
The substance was given i.v. or p.o. daily on day 2-15 with the maximal tolerable dose (MTD) and a dose 2/3 of the MTD value according to the pretests. 5 mice/group were used.
as §4
The relative tumor size VR was calculated according the formula [formula] Vt =tumor size at the end of experiment (day 21) V0 =tumor size as day of implantation
Subsequently the median relative tumor size of the treated group (VT) was related to the corresponding median relative tumor size of controls (VC) according to the formula [formula] The statistical significance (p 0.05) of the antitumoral effects was calculated using the Wilcoxon U test.

Compound | T/C
CN1CC[C@H](c2c(O)cc(O)c3c(=O)cc(-c4ccccc4Cl)oc23)[C@H](O)C1 (single isomer, unassigned) [Exmp. 9, (-)-cis-5,7-Dihydroxy-2-(2-chlorophenyl)-8-[4-(3-hydroxy-1-methyl)piperidinyl]-4H-1-benzopyran-4-one hydrochloride] | 59%

Same assay, conditions: LXF 529, 4 mg/kg/day i.v., days 2-15

Compound | T/C
CN1CC[C@H](c2c(O)cc(O)c3c(=O)cc(-c4ccccc4Cl)oc23)[C@H](O)C1 (single isomer, unassigned) [Exmp. 9, (-)-cis-5,7-Dihydroxy-2-(2-chlorophenyl)-8-[4-(3-hydroxy-1-methyl)piperidinyl]-4H-1-benzopyran-4-one hydrochloride] | 51%

Same assay, conditions: LXF 529, 25 mg/kg/day i.v., days 2-15; n.s. = not significant (P > 0.05)

Compound | T/C
CN1CC[C@H](c2c(O)cc(O)c3c(=O)cc(-c4cccc(Br)c4)oc23)[C@H](O)C1 (relative stereo) [Exmp. 17, (±)-cis-5,7-Dihydroxy-2-(3-bromophenyl)-8-[4-(3-hydroxy-1-methyl)piperidinyl]-4H-1-benzopyran-4-one hydrochloride] | 81%

Same assay, conditions: LXF 529, 35 mg/kg/day i.v., days 2-15

Compound | T/C
CN1CC[C@H](c2c(O)cc(O)c3c(=O)cc(-c4cccc(Br)c4)oc23)[C@H](O)C1 (relative stereo) [Exmp. 17, (±)-cis-5,7-Dihydroxy-2-(3-bromophenyl)-8-[4-(3-hydroxy-1-methyl)piperidinyl]-4H-1-benzopyran-4-one hydrochloride] | 67%

Same assay, conditions: LXF 529, 100 mg/kg/day i.v., days 2-15; n.s. = not significant (P > 0.05)

Compound | T/C
CN1CC[C@H](c2c(O)cc(O)c3c(=O)cc(-c4ccc(O)cc4)oc23)[C@H](O)C1 (relative stereo) [Exmp. 19, (±)-cis-5,7-Dihydroxy-2-(4-hydroxyphenyl)-8-[4-(3-hydroxy-1-methyl)piperidinyl]-4H-1-benzopyran-4-one] | 98%

Same assay, conditions: LXF 529, 150 mg/kg/day i.v., days 2-15

Compound | T/C
CN1CC[C@H](c2c(O)cc(O)c3c(=O)cc(-c4ccc(O)cc4)oc23)[C@H](O)C1 (relative stereo) [Exmp. 19, (±)-cis-5,7-Dihydroxy-2-(4-hydroxyphenyl)-8-[4-(3-hydroxy-1-methyl)piperidinyl]-4H-1-benzopyran-4-one] | 80%
